Data: patent US20240148749A1 (priority 2021, published 2024)

Experiments:
[1] = tested on: brain; assay: Brain ROS/RNS, antioxidant defense and bioenergetic/mitochondrial parameters at 21 days; assay type: in vivo, mouse
Description: (b) Levels of the central bioenergetic metabolite Acetyl-CoA expressed in nmol/g. Expression of genes coding for PGC-lalpha quantified by RT-qPCR from RNA isolated from brains extracted from control and CLP mice with or without MnTBAP.
Data shown are mean values (±SD). Gray bars represent MnTBAP-treated mice from either CLP or control groups, and black bars represent placebo-treated mice from either CLP or Control groups. Two-way analyses of variance (ANOVAs) (CLP vs Control×MnTBAP vs Placebo) were performed. When a significant interaction was observed, planned comparisons were performed for the CLPI/Placebo group against the three other groups. The significance of the planned comparisons is indicated with asterisks (*p<0.05, **p<0.01, ***p<0.001, ****p<0.0001) .
MnTBAP is commercially available: it is for example manufactured by Sigma-Aldrich, Calbiochem, etc. For use it is dissolved following the guidance provided by the manufacturer.
Total RNA was isolated from cells using the RNAeasy Micro kit (Qiagen), and reverse-transcribed using Superscript® III Reverse transcriptase (Invitrogen). Real-time quantitative PCR was performed in duplicate for each sample using Power Sybr Green PCR Master Mix (Applied Biosystems) and the rate of dye incorporation was monitored using the StepOne™ Plus RealTime PCR system (Applied Biosystems). Data were analyzed by StepOne Plus RT PCR software v2.1 and Microsoft excel. Amplification specificity was assessed with a melting curve analysis. TBP transcript levels were used for normalisation of each target (=ΔCT). Real-time PCR CT values were analyzed using the 2^−(ΔCt) method to calculate the fold expression (Schmittgen et al., 2008). The data are presented as relative mRNA units with respect to control group (expressed as fold over control value). Primer sequences available upon request.
Microglial cells and brain samples were resuspended in lysis buffer (50 mM TrisHCI pH 7.5, 150 mM NaCl, 1% Triton X-100, 0.1% SDS, 1 mM EDTA, and protease inhibitor mixture), mechanically homogenized with a piston, briefly vortexed and incubated for 30 min at 4° C. Lysed samples were briefly centrifuged to remove debris, and the whole supernatant extract was collected. Aliquots of the supernatant were immediately used for the assessment of ROS level, RNS level, dual ROS/RNS level, SOD activity, and Acetyl-Coa level. The protein content was determined with the Bradford reagent (Sigma-Aldrich).
Both ROS and RNS were measured by incubating CellROX (Life Technologies) with 30 μg of freshly extracted total proteins for 45 min at 37° C. in the dark in 96-wells plate in triplicate. Fluorescence intensity was measured using near-infra-red fluorescence setting with the plate reader Odyssey Infrared Imaging system scanner and Odyssey application software v3.0 (LI-COR Biosciences, Lincoln, NE).
SOD activity was measured with Superoxide Dismutase Activity Colorimetric Assay kit (Abcam, ab65354), following the manufacturer's instructions. This measurement assesses SOD-dependent inhibition of superoxide anion reduction. Tests were performed with 30 μg of freshly extracted total proteins, quantified by Bradford assay, or with 10 μl of serum, in triplicate.
Total DNA was prepared using extraction buffer (0.2 mg ml^−1 proteinase K, 0.2% SDS and 5 mM EDTA in PBS) and incubated at 50° C. for 3 h. DNA was precipitated with 3 M sodium acetate (pH 5.2) and isopropanol for 20 min on ice before centrifugation at 8,000 g at 4° C. The DNA pellet was washed and briefly air-dried. qPCR amplification was performed on total DNA using the StepOne Plus RealTime PCR system (Applied Biosystems) and Power Sybr Green PCR Master mix (ABI) following the manufacturer's instruction. A fragment of mitochondrial COI gene, the established marker for mtDNA content in mouse cells, was amplified using the nuclear encoded Ndufv1 gene as endogenous reference. […]

[2] = tested on: CLP mice; assay: Survival after cecal ligation and puncture (CLP) model of sepsis; assay type: in vivo, mouse; conditions: CLP-MnTBAP mice, 24 h after CLP; MnTBAP 10 mg/kg IP every 12 h for 48 h
Procedure: A log-rank (Mantel-Cox) p value for trend was calculated.
We used peritonitis induced by CLP as a model of sepsis (Rittirsch et al., 2009). Briefly, animals were anesthetized with ketamine (Imalgene® 1000 100 mg/kg, Merial, France) and Xylazine (Rompun® 2% 20 mg/kg, Bayer, Germany) prior to surgery. After laparotomy, caecum was ligatured at the distal third with a 4.0 suture and the distal part was perforated twice with a 21 Gauge needle.
For use it is dissolved following the guidance provided by the manufacturer.
Clinical score was assessed 6, 12 and 24 hours and 21 days after CLP using a modified SmithKline Beecham, Harwell, Imperial College and Royal London Hospital phenotype assessment (SHIRPA) (Rogers et al., 1997) of the maximum score of fourteen. Weight, temperature and locomotor activity using an open field box were measured at the same time points. We determined survival rate twice a day for 21 days after CLP. The symptoms included in the a modified SmithKline Beecham, Harwell, Imperial College and Royal London Hospital phenotype assessment (SHIRPA) are tremors, periorbital exudates, piloerection, lethargy, vocalisation, positional passivity, no escapement to threat, long transfer arousal and diarrhoea. Each condition was scored from 0 to 2.
Experimental protocols were conducted in accordance with the French and European regulations on Animal Welfare and with Public Health Service recommendations. The experiments were performed on C57BL/6JRj mice (male and female) purchased from Janvier Laboratory. Mice were housed in cages in groups of 7, in a temperature (22±1.5° C.) and humidity-controlled environment, with a 12 h light/dark cycle. All animals used in the study were between 10 and 12 weeks old. Sample-size estimates for animal experiments were based on prior animal-modelling studies used in the Unit for the investigation of caecal ligation and puncture (CLP).
At the end, two groups were compared: CLP-Placebo, CLP-BMX-010. We determined survival rate twice a day for 4 days after CLP.”

[3] = CLP mice + MnTBAP, 21 days after sepsis
[4] = CLP mice + MnTBAP, 21 days after sepsis, remained different from Control-Placebo
[5] = MnTBAP in control mice vs Control-placebo mice
[6] = MnTBAP in control mice vs Control-placebo mice, p<0.0001

O=C(O)c1ccc(/C2=C3\C=CC(=N3)/C(c3ccc(C(=O)O)cc3)=c3/cc/c4[n]3[Mn]([Cl])[n]3c2ccc3/C(c2ccc(C(=O)O)cc2)=C2/C=CC(=N2)\C=4c2ccc(C(=O)O)cc2)cc1 [MnTBAP, Manganese (III) tetrakis (4-benzoic acid)porphyrin chloride]
did not affect: brain PGC1 alpha expression [1, 5] | brain acetyl-coA levels [1, 5] | brain catalase expression [1, 5]
increase: brain ATP production [1, 6] | brain NRF2 expression [1, 6] | brain SOD1 expression [1, 6] | brain SOD2 expression [1, 6] | brain SOD activity [1, 6] | brain mtDNA content [1, 6] | brain mtRNA 16S level ([1]; MnTBAP in control mice vs Control-placebo mice, p=0.0005) | brain ROS/RNS levels ([1]; MnTBAP in control mice vs Control-placebo mice, p=0.001) | brain mtRNA CytB level ([1]; MnTBAP in control mice vs Control-placebo mice, p=0.04)
counteracted: sepsis-induced brain alterations ([1]; CLP mice, 21 days after sepsis)
significantly increasing: brain ATP production [1, 4] | brain ROS/RNS levels [1, 4] | brain SOD1 expression [1, 4] | brain SOD activity levels [1, 4]
66%: mice alive [2]
strongly decreased: brain acetyl-coA levels [1, 3] | brain mtRNA 16S levels [1, 3]
